Measurements from the NIST ThermoML archive (doi:10.1021/je030127e).
Numbers after ± are expanded uncertainties.

Tests used:
[1] = xn = mol fraction of the nth substance listed; details: 101.3 kPa, Liquid, x1 = 1; for viscosity: Capillary tube (Ostwald / Ubbelohde) method
[2] = 101.3 kPa, Liquid; for viscosity: Capillary tube (Ostwald / Ubbelohde) method

Row | SMILES | viscosity ([1]; 293.15 K) | viscosity ([1]; 298.15 K) | speed of sound ([1]; 298.15 K) | viscosity ([1]; 303.15 K) | viscosity ([2]; 293.15 K) | speed of sound ([2]; 298.15 K) | viscosity ([2]; 298.15 K) | viscosity ([2]; 303.15 K)
1 | COCCO [2-methoxyethan-1-ol] + CCCCN | 1.708 ± 0.013 mPa·s | 1.544 ± 0.012 mPa·s | 1344.5 ± 1.1 m/s | 1.404 ± 0.011 mPa·s |  |  |  | 
2 | COCCO [2-methoxyethan-1-ol] |  |  |  |  | 1.708 ± 0.013 mPa·s | 1344.5 ± 1.1 m/s | 1.544 ± 0.012 mPa·s | 1.404 ± 0.011 mPa·s
3 | CCCCN [1-butanamine] |  |  |  |  | 0.525 ± 0.005 mPa·s | 1251.6 ± 1.1 m/s | 0.496 ± 0.005 mPa·s | 0.467 ± 0.005 mPa·s
